Test results as given in US7811797B2, “α-isomaltosylglucosaccharide-forming enzyme, process and uses of the same” (Kabushiki Kaisha Hayashibara Seibutsu Kagaku Kenkyujo, priority 2000, dated 2010).
Like-named read-outs stand apart in the source and are kept apart here.

What was measured:
[1] = system: Small intestinal mucosal enzyme; test: Digestion test in vitro, small intestinal mucosal enzyme
[2] = system: α-isomaltosylglucosaccharide-forming enzyme; test: Transfer-acceptor specificity, Enzyme of Strain A19; type: biochemical, Arthrobacter globiformis A19; settings: acceptor 1.6%, PINE-DEX #100 donor 4%, one unit/g donor, 30° C., pH 8.4, 24 hours
In short: (§1)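 Each candidate acceptor at 1.6% was combined with 4% partial starch hydrolysate donor and 1 unit/g donor (d.s.b.) of purified enzyme. Incubation ran 24 h at 30 °C, pH 6.0 for the C9, C11 and N75 enzymes and pH 8.4 for A19. Transfer products were detected by GLC for mono- and disaccharide acceptors and HPLC for trisaccharide acceptors.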

[3] = system: α-isomaltosylglucosaccharide-forming enzyme; test: Action on saccharides (substrates), Enzyme of Strain A19; type: biochemical, Arthrobacter globiformis A19; design: key: −: it showed no change; +: it showed a slight reduction of the color spot of the substrate and the formation of other reaction product; ++: it showed a high reduction of the color spot of the substrate and the formation of other reaction product; +++: it showed a substantial disappearance of the substrate spot and the formation of other reaction product; settings: two units/g substrate, substrate 2% (w/v), 30° C., pH 8.4, 24 hours, TLC
In short: (§2)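 Purified enzyme from each strain was added at 2 units/g substrate to each of 24 saccharides at 2% (w/v). Incubation ran 24 h at 30° C, pH 6.0, or pH 8.4 for the A19 enzyme. TLC compared reaction mixtures before and after incubation to show whether each substrate was acted on.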

[4] = system: α-isomaltosylglucosaccharide-forming enzyme; test: Action on saccharides (substrates), Enzyme of Strain C9; type: biochemical, Bacillus globisporus C9; design: key: −: it showed no change; +: it showed a slight reduction of the color spot of the substrate and the formation of other reaction product; ++: it showed a high reduction of the color spot of the substrate and the formation of other reaction product; +++: it showed a substantial disappearance of the substrate spot and the formation of other reaction product; settings: two units/g substrate, substrate 2% (w/v), 30° C., pH 6.0, 24 hours, TLC
In short: as §2

[5] = system: α-isomaltosylglucosaccharide-forming enzyme; test: Transfer-acceptor specificity, Enzyme of Strain N75; type: biochemical, Bacillus globisporus N75; settings: acceptor 1.6%, PINE-DEX #100 donor 4%, one unit/g donor, 30° C., pH 6.0, 24 hours
In short: as §1

[6] = Reducing power on the Somogyi-Nelson's method; type: physicochemical
[7] = Amino carbonyl reaction with polypeptone; type: physicochemical; settings: 10% (w/v) with 5% (w/v) polypeptone, 100° C., minus the control
Experimental: Four milliliters of the resulting solution were placed in a glass test tube, sealed, and heated at 100° C. for 30 to 90 min. After allowing to stand for cooling at ambient temperature, each of the resulting solutions was measured for coloration degree to examine on their amino carbonyl reactivity. In parallel, as a control, a solution with only polypeptone was provided and similarly treated as above. The coloration degree was evaluated based on the level of the absorbance, measured in a cell with 1-cm light pass at a wavelength of 480 nm, minus the control.

[8] = system: Small intestinal mucosal enzyme
[9] = system: Eubacterium aerofaciens ATCC 25986; test: Assimilation test, Eubacterium aerofaciens; type: cell-based; settings: PYF medium with 0.5% saccharide, 37° C., four days, anaerobic

SMILES: OC[C@@H](O)[C@@H](O[C@H]1O[C@H](CO)[C@@H](O)[C@H](O)[C@H]1O)[C@H](O)[C@@H](O)CO [Maltitol, reference compound]
- Decomposition percentage (%) by digestive enzyme [1]: 4.0%
- Product of transferring reaction, Enzyme of Stain A19 [2]: ++ (a saccharide-transferred product was detected in an amount over ten percent through transfer reaction to acceptor)
- Enzymatic action, Enzyme of Strain A19 [3]: −
- Enzymatic action, Enzyme of Strain C9 [4]: −
- Product of transferring reaction, Enzyme of Strain N75 [5]: ++ (a saccharide-transferred product was detected in an amount over ten percent through transfer reaction to acceptor)

SMILES: OCC1OC2OCC3O[C@H](O[C@H]4C(O)C(CO)OC(OCC5O[C@H](O[C@@H](C1O)C2O)C(O)C(O)[C@@H]5O)C4O)C(O)C(O)[C@@H]3O (stereo partly drawn) [Cyclotetrasaccharide, cyclo{→6)-α-D-glucopyranosyl-(1→3)-α-D-glucopyranosyl-(1→6)-α-D-glucopyranosyl-(1→3)-α-D-glucopyransoyl-(1→}]
- reducing power [6]: below a detectable level
- Coloration degree (A480 nm) ([7]; heating time 0 min): 0.00 A480 nm
- Coloration degree (A480 nm) ([7]; heating time 30 min): 0.00 A480 nm
- Coloration degree (A480 nm) ([7]; heating time 60 min): 0.00 A480 nm
- Coloration degree (A480 nm) ([7]; heating time 90 min): 0.00 A480 nm
- Decomposition percentage (%) by digestive enzyme [8]: 0.74%
- digestibility relative to that of maltitol [8]: ⅕
- Assimilability [9]: − (judged negative (−) when the post culture had a pH of 6.0 or higher)
